The results in this text go back to PubChem BioAssay (NCI).

Some test systems named below: HT29 colon; NCI-H522 lung; K-562 leukemia; MALME-3M melanoma; SK-OV-3 ovarian; OVCAR-4 ovarian; OVCAR-8 ovarian; HL-60(TB) leukemia; COLO 205 colon.
What all share (test): NCI-60 cell line screen, 48 h

Molecules are shown by their SMILES.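 In this assay, cells in 96-well plates receive the compound at five concentrations for 48 hours. Endpoints are linearly interpolated between the surrounding concentrations. At the GI50, growth is halved. TGI marks complete inhibition of growth.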 Where only a bound is given, the exact number is not on record here.

As for `O=c1cccccc1[O-].O=c1cccccc1[O-].O=c1cccccc1[O-].[La+3]`, the TGI is > 100 µM with HT29 colon; 84.2 µM with NCI-H522 lung; > 100 µM in the experiment on K-562 leukemia; 31.9 µM with MALME-3M melanoma; 86.9 µM in the experiment on SK-OV-3 ovarian; > 100 µM in the experiment with OVCAR-4 ovarian. Moreover, the TGI in the experiment with OVCAR-8 ovarian worked out at 51.5 µM; in the experiment with HL-60(TB) leukemia it was 30.9 µM.
For the compound `N#Cc1cccc(/C=N/N=C(\N)NO)c1`, the TGI in the experiment on HT29 colon, with NCI-H522 lung, in the experiment on K-562 leukemia, with MALME-3M melanoma, with SK-OV-3 ovarian and in the experiment on OVCAR-4 ovarian was > 100 µM each time. For the same compound, the TGI with OVCAR-8 ovarian, in the experiment on HL-60(TB) leukemia and in the experiment with COLO 205 colon was > 100 µM each time.
`CN1C(=O)C2C(C1=O)C1(O)c3ccccc3C2(N)c2ccccc21` (stereo unspecified): the TGI in the experiment with HT29 colon, in the experiment on K-562 leukemia, in the experiment on MALME-3M melanoma, in the experiment on SK-OV-3 ovarian, in the experiment with OVCAR-4 ovarian and in the experiment on OVCAR-8 ovarian was > 100 µM each time. The TGI in the experiment with HL-60(TB) leukemia and in the experiment on COLO 205 colon was > 100 µM in each case.
Regarding `CN(C)c1ccc(/C=c2\sc3nc4ccccc4n3c2=O)cc1`, the TGI in the experiment on HT29 colon, with NCI-H522 lung, in the experiment with K-562 leukemia, with MALME-3M melanoma, in the experiment on OVCAR-4 ovarian and in the experiment on OVCAR-8 ovarian was > 100 µM each time. For the same compound, the TGI in the experiment on HL-60(TB) leukemia and in the experiment on COLO 205 colon was > 100 µM in each case.
For `COc1ccc(C2ON(c3cccc(C)n3)CC=C2C)cc1` (stereo unspecified), the TGI was > 100 µM in the experiment on HT29 colon; 54.8 µM with NCI-H522 lung; > 100 µM with K-562 leukemia; > 100 µM in the experiment on MALME-3M melanoma; > 100 µM with SK-OV-3 ovarian; > 100 µM in the experiment on OVCAR-4 ovarian. For the same compound, the TGI is > 100 µM with OVCAR-8 ovarian, 43.7 µM in the experiment with HL-60(TB) leukemia and > 100 µM with COLO 205 colon.
Consider `NC(N)=NS(=O)(=O)c1ccc(NCCc2c3ccccc3nc3ccccc23)cc1`, for which the TGI in the experiment with HT29 colon was > 100 µM; in the experiment with NCI-H522 lung it was > 100 µM; in the experiment with K-562 leukemia it was > 100 µM; in the experiment with MALME-3M melanoma it was > 100 µM; with SK-OV-3 ovarian, > 100 µM; in the experiment with OVCAR-4 ovarian it was 53.8 µM. Besides, the TGI with OVCAR-8 ovarian was > 100 µM; in the experiment on HL-60(TB) leukemia it was 82.5 µM; in the experiment with COLO 205 colon it was > 100 µM.
Regarding `CCN(CC)c1ccc(N=Nc2ccc(-c3nc4ccc[n+](C)c4o3)cc2)cc1`, the TGI came out at 24.3 µM with HT29 colon; 18.5 µM in the experiment with NCI-H522 lung; 12.4 µM in the experiment with K-562 leukemia; 4.31 µM in the experiment on MALME-3M melanoma; 34.1 µM in the experiment on SK-OV-3 ovarian; 25.2 µM with OVCAR-4 ovarian. The TGI stood at 18.8 µM with OVCAR-8 ovarian, 7.32 µM in the experiment with HL-60(TB) leukemia and 5.41 µM in the experiment with COLO 205 colon.
Turning to `NC(N)=NS(=O)(=O)c1ccc(Nc2c3ccccc3nc3c(C(=O)Nc4ccc(S(N)(=O)=O)cc4)cccc23)cc1`, the TGI is > 100 µM in the experiment on HT29 colon; 68.7 µM in the experiment on NCI-H522 lung; > 100 µM in the experiment on K-562 leukemia; > 100 µM with MALME-3M melanoma; > 100 µM with SK-OV-3 ovarian; > 100 µM in the experiment with OVCAR-4 ovarian. Also, the TGI with OVCAR-8 ovarian, with HL-60(TB) leukemia and in the experiment on COLO 205 colon was > 100 µM throughout.
As to `COC(=O)Nc1nc2ccc(Br)cc2[nH]1`, the TGI is 37.4 µM with HT29 colon; 32.8 µM in the experiment on NCI-H522 lung; > 100 µM in the experiment with K-562 leukemia; > 100 µM in the experiment with MALME-3M melanoma; 67.9 µM with SK-OV-3 ovarian; > 100 µM with OVCAR-4 ovarian. Also, the figures for the TGI with OVCAR-8 ovarian, in the experiment with HL-60(TB) leukemia and in the experiment with COLO 205 colon were > 100 µM, 90 µM and > 100 µM, respectively.
For `COc1ccc(OCC(=O)O)c(C(=O)CCC(=O)O)c1`, the TGI in the experiment on HT29 colon, in the experiment with NCI-H522 lung, in the experiment with K-562 leukemia, in the experiment on MALME-3M melanoma, in the experiment with SK-OV-3 ovarian and in the experiment on OVCAR-4 ovarian was > 100 µM in each case. The TGI in the experiment with OVCAR-8 ovarian, in the experiment with HL-60(TB) leukemia and in the experiment on COLO 205 colon was > 100 µM each time.
Regarding `Clc1ccc(C(n2cc(Br)cn2)n2cc(Br)cn2)cc1`, the TGI was determined as 26.9 µM with HT29 colon; 27.7 µM in the experiment on NCI-H522 lung; 53.6 µM with K-562 leukemia; 31.7 µM with MALME-3M melanoma; 60.9 µM in the experiment with SK-OV-3 ovarian; 26.4 µM in the experiment on OVCAR-4 ovarian. Besides, the values for the TGI in the experiment on OVCAR-8 ovarian, with HL-60(TB) leukemia and in the experiment with COLO 205 colon were 36.5 µM, 56.6 µM and 33.8 µM, respectively.
As for `Cc1cc2c(C)nn(Cc3ccc(Cl)cc3)c2c(C#N)c1C`, the TGI in the experiment on MALME-3M melanoma, in the experiment on SK-OV-3 ovarian, in the experiment with OVCAR-8 ovarian, with HL-60(TB) leukemia and in the experiment on COLO 205 colon was > 100 µM each time.
Regarding `CC1OC(n2cc(F)c(=O)[nH]c2=O)C=CC1=O` (stereo unspecified), the TGI in the experiment with HT29 colon was 49.3 µM; in the experiment on NCI-H522 lung, 23.2 µM; with K-562 leukemia, > 100 µM; in the experiment with MALME-3M melanoma it was 35.3 µM; with SK-OV-3 ovarian, 95.9 µM; with OVCAR-4 ovarian, 33.6 µM. In addition, the values for the TGI with OVCAR-8 ovarian, with HL-60(TB) leukemia and in the experiment on COLO 205 colon were 47.9 µM, 70.3 µM and 89.1 µM, respectively.
As for `COc1cccc(NC(=O)/C(Cc2nc3ccccc3nc2C)=N/NC(=O)C[n+]2ccccc2)c1`, the TGI with HT29 colon, in the experiment with K-562 leukemia, in the experiment with MALME-3M melanoma, in the experiment with SK-OV-3 ovarian, in the experiment with OVCAR-4 ovarian and with OVCAR-8 ovarian was > 100 µM in each case. Besides, the TGI with HL-60(TB) leukemia is > 100 µM; in the experiment with COLO 205 colon it was 44.6 µM.
`COC(C)(C)C/C=C/C(C)=C/C=C/C(C)=C\C=C\C(C)=C\C=C\C=C(C)\C=C\C=C(C)\C=C\C=C(C)\C=C\CC(C)(C)OC`: the GI50 with HT29 colon, with NCI-H522 lung, in the experiment with K-562 leukemia, with MALME-3M melanoma, in the experiment on OVCAR-4 ovarian and in the experiment with OVCAR-8 ovarian was > 150 µg/mL in each case. The GI50 in the experiment with HL-60(TB) leukemia and in the experiment on COLO 205 colon was > 150 µg/mL in each case. Besides, the TGI in the experiment on HT29 colon, in the experiment with NCI-H522 lung, in the experiment with K-562 leukemia, in the experiment with MALME-3M melanoma, in the experiment on OVCAR-4 ovarian and with OVCAR-8 ovarian was > 150 µg/mL throughout. Further, the TGI in the experiment with HL-60(TB) leukemia and in the experiment on COLO 205 colon was > 150 µg/mL throughout.
As for `CN(C)CC/[N+]([O-])=C(/c1ccccc1)C12CC3CC(CC(C3)C1)C2`, the TGI amounted to 23.8 µM with HT29 colon; 29.2 µM in the experiment with NCI-H522 lung; 30.8 µM in the experiment with K-562 leukemia; 55.2 µM in the experiment on MALME-3M melanoma; 31.4 µM with SK-OV-3 ovarian; 31.7 µM in the experiment with OVCAR-8 ovarian. Further, the TGI in the experiment with HL-60(TB) leukemia was 26.1 µM; in the experiment with COLO 205 colon, 30.3 µM.
As for `O=c1c2cc(Cl)ccc2sc2cccc(Cl)c12`, the TGI in the experiment on HT29 colon, in the experiment on NCI-H522 lung, in the experiment with K-562 leukemia, in the experiment on OVCAR-4 ovarian, in the experiment on OVCAR-8 ovarian and with HL-60(TB) leukemia was > 100 µM in each case. Also, the TGI with COLO 205 colon is > 100 µM.
Turning to `COc1ccccc1NC(=O)CC(=O)N/N=C/c1ccc(N(CCC#N)S(=O)(=O)c2ccccc2)cc1`, the TGI with HT29 colon, with NCI-H522 lung, with K-562 leukemia, in the experiment on MALME-3M melanoma, in the experiment with OVCAR-4 ovarian and in the experiment with OVCAR-8 ovarian was > 100 µM throughout. The TGI with HL-60(TB) leukemia and in the experiment on COLO 205 colon was > 100 µM in each case.
With `O=C(NC12CC3CC(CC(C3)C1)C2)C(=O)c1c[nH]c2ccccc12`, the TGI came out at 15 µM in the experiment on HT29 colon; 31.7 µM with NCI-H522 lung; 28.3 µM in the experiment on MALME-3M melanoma; 29.5 µM with SK-OV-3 ovarian; 31.4 µM with OVCAR-4 ovarian; 52.8 µM in the experiment with HL-60(TB) leukemia. The compound also had a TGI with COLO 205 colon of 33.5 µM.
In the case of `COc1cc2c(cc1OC)/C(=C\c1ccccc1N)C(=O)OC2`, the TGI with HT29 colon is 30.4 µM; with NCI-H522 lung it was 3.47 µM; with K-562 leukemia, 16.1 µM; in the experiment with MALME-3M melanoma, 29.1 µM; in the experiment with SK-OV-3 ovarian it was 55.7 µM; with OVCAR-4 ovarian, 29 µM. In addition, the TGI amounted to 17.6 µM in the experiment with HL-60(TB) leukemia and 28.8 µM in the experiment on COLO 205 colon.
Consider `Cc1cc(C)cc(NC(N)=S)c1`, for which the TGI with HT29 colon, in the experiment on NCI-H522 lung, in the experiment with K-562 leukemia, in the experiment with MALME-3M melanoma, in the experiment with OVCAR-4 ovarian and in the experiment with OVCAR-8 ovarian was > 100 µM each time. The TGI in the experiment on HL-60(TB) leukemia was > 100 µM; in the experiment with COLO 205 colon it was 59.1 µM.
Consider `O=C(c1ccccc1)c1cn(/N=C\c2ccccc2)c(=O)nc1-c1ccccc1`, for which the TGI with HT29 colon, in the experiment on NCI-H522 lung, with K-562 leukemia, with MALME-3M melanoma, in the experiment with SK-OV-3 ovarian and with OVCAR-4 ovarian was > 100 µM throughout. Moreover, the TGI in the experiment with OVCAR-8 ovarian and in the experiment with COLO 205 colon was > 100 µM in each case.
As to `CCCSS[C@H]1NC(=O)[C@H]1NC(=O)COc1ccccc1`, the TGI in the experiment with HT29 colon is 36.3 µM; with K-562 leukemia, 28.6 µM; with MALME-3M melanoma, 26.9 µM; in the experiment with SK-OV-3 ovarian, > 100 µM; with OVCAR-4 ovarian, 31.9 µM; in the experiment on OVCAR-8 ovarian it was 27.6 µM. In addition, the TGI with HL-60(TB) leukemia stood at 5.72 µM; with COLO 205 colon it was 25 µM.
